Test results: patent US4457929A, “3-Quaternary ammonium methyl)-substituted cephalosporin derivatives” (Bristol-Myers Company, priority 1982, dated 1984)

How the values were obtained:
[1] = system: Penicillinresistant S. aureus (5 strains); assay: MIC by two-fold serial agar dilution, group (G+)-Ib; type: cell-based; conditions: Staphylococcus aureus, Mueller-Hinton agar, penicillin-resistant S. aureus, Example 1: two different batches, read-out: Geometric Mean of MIC (G+)-Ib
From the text: (§1) The preferred compounds of Formula I are those in which R^1 is hydrogen, R^2 is methyl, R^3 is methyl or ethyl, and R^4 is methyl, ethyl, 2-hydroxyethyl, 2-(dimethylamino)ethyl, allyl or pyridylmethyl. Particularly preferred compounds are those in which R^1 is hydrogen, R^2 and R^3 are methyl, and R^4 is methyl, 2-hydroxyethyl or allyl. The most preferred compound is that in which R^1 is hydrogen and R^2, R^3 and R^4 are methyl. In the primary evaluation of the preferred compounds of this invention, the Minimum Inhibitory Concentrations (MIC's) of the compounds were determined by the two-fold serial agar dilution method in Mueller-Hinton agar against 32 strains of test organisms in six groups.
(G+)Ib: Penicillinresistant S. aureus (5 strains)

N. gonorrhoeae (4) = assay: In vitro activity against fastidious bacteria in GC agar: N. gonorrhoeae; type: cell-based; conditions: Neisseria gonorrhoeae, 4 strains, read-out: Geometric Mean of MIC
Description: (§2) The in vitro activity of the most preferred Compound Ia against 31 strains of fastidious bacteria was determined in GC agar, and the results are shown in Table 3.

N. meningitidis (5) = assay: In vitro activity against fastidious bacteria in GC agar: N. meningitidis; type: cell-based; conditions: Neisseria meningitidis, 5 strains, read-out: Geometric Mean of MIC
Description: as §2

S. pneumoniae (6) = assay: In vitro activity against fastidious bacteria in GC agar: S. pneumoniae; type: cell-based; conditions: Streptococcus pneumoniae, 6 strains, read-out: Geometric Mean of MIC
Description: as §2

[2] = system: H. influenzae (7) (ampicillin sensitive); assay: In vitro activity against fastidious bacteria in GC agar: H. influenzae (ampicillin sensitive); type: cell-based; conditions: Haemophilus influenzae, 7 strains, read-out: Geometric Mean of MIC
Description: as §2

[3] = system: H. influenzae (3) (ampicillin resistant); assay: In vitro activity against fastidious bacteria in GC agar: H. influenzae (ampicillin resistant); type: cell-based; conditions: Haemophilus influenzae, 3 strains, read-out: Geometric Mean of MIC
Description: as §2

[4] = system: Cephalothinsensitive E. coli (2 strains), Kl. pneumoniae (1 strain) and Pr. mirabilis (2 strains); assay: MIC by two-fold serial agar dilution, group (G-)-Ia; type: cell-based; conditions: Mueller-Hinton agar, cephalothin-sensitive, 5 strains, Example 1: two different batches; for MIC: read-out: Geometric Mean of MIC (G-)-Ia
From the text: as §1
(G-)Ia: Cephalothinsensitive E. coli (2 strains), Kl. pneumoniae (1
strain) and Pr. mirabilis (2 strains)

[5] = Mouse blood levels following a single intramuscular injection; type: in vivo; conditions: im, mice, 20 mg/kg
Description: The absorption of the most preferred Compound Ia (prepared in Example 1) was determined in mice following a single intramuscular injection of the test compound (dissolved in 0.1M phosphate buffer; pH 7) at a dosage of 20 mg/kg. Blood samples were collected from the orbital sinuses into heparinized capillary tubes and assayed in Mueller-Hinton medium using Morganella morganii A9695 as the test organism. The blood levels at various time intervals, the half-life values (t1/2) and the areas under the curve (AUC) are shown in Table 2.

S. pyogenes (6 strains) = assay: In vitro activity against fastidious bacteria in GC agar: S. pyogenes; type: cell-based; conditions: Streptococcus pyogenes, read-out: Geometric Mean of MIC
Description: as §2

[6] = system: Penicillinsensitive S. aureus (5 strains); assay: MIC by two-fold serial agar dilution, group (G+)-Ia; type: cell-based; conditions: Mueller-Hinton agar, penicillin-sensitive S. aureus, Example 1: two different batches; for MIC: Staphylococcus aureus, read-out: Geometric Mean of MIC (G+)-Ia
From the text: as §1
(G+)Ia: Penicillinsensitive S. aureus (5 strains)

[7] = system: Cephalothinresistant E. coli (3 strains) and Kl. pneumoniae (3 strains); assay: MIC by two-fold serial agar dilution, group (G-)-Ib; type: cell-based; conditions: cephalothin-resistant, 6 strains, Example 1: two different batches; for MIC: Escherichia coli, read-out: Geometric Mean of MIC (G-)-Ib, Mueller-Hinton agar
From the text: as §1
(G-)Ib: Cephalothinresistant E. coli (3 strains) and Kl. pneumoniae (3

[8] = system: Ps. aeruginosa (6 strains); assay: MIC by two-fold serial agar dilution, group (G-)-III; type: cell-based; conditions: Mueller-Hinton agar, Example 1: two different batches; for MIC: Pseudomonas aeruginosa, read-out: Geometric Mean of MIC (G-)-III
From the text: as §1
(G-)III: Ps. aeruginosa (6 strains)

[9] = system: Pr. morganii (1 strain), Ent. cloacae (2 strains) and Ser. marcescens (2 strains); assay: MIC by two-fold serial agar dilution, group (G-)-II; type: cell-based; conditions: Mueller-Hinton agar; 5 strains; Example 1: two different batches; read-out: Geometric Mean of MIC (G-)-II
From the text: as §1
(G-)II: Pr. morganii (1 strain), Ent. cloacae (2 strains) and Ser.

Which MIC [1] does the source give for `CO/N=C(\C(=O)NC1C(=O)N2C(C(=O)[O-])=C(C[N+](C)(C)C)CSC12)c1csc(N)n1` (centres unmarked) [Example 1, 7-[(Z)-2-(2-Aminothiazol-4-yl)-2-methoxyiminoacetamido]-3-(trimethylammonium)methyl-3-cephem-4-carboxylate] here?
The MIC was 3.6 µg/mL.

And the MIC (N. gonorrhoeae (4))?
Its MIC is 0.013 µg/mL.

And the MIC (N. meningitidis (5))?
The MIC was 0.016 µg/mL.

What about the MIC (S. pneumoniae (6)) of the same molecule?
The MIC was 0.013 µg/mL.

And the MIC [2]?
The MIC was 0.013 µg/mL.

And the MIC [3]?
Its MIC is 0.2 µg/mL.

What about the “Geometric Mean of MIC (G-)-Ia” value [4] of the same molecule?
Its value is 0.029 µg/mL.

What about the MIC [4] of the same molecule?
Its MIC is 0.033 µg/mL.

What about the AUC [5] of the same molecule?
Its AUC is 10000 ng·h/mL.

And the half-life [5]?
Its half-life is 24 min.

And the concentration at 10 min ([5]; 10 minutes, read-out: Blood levels at minutes after administration: 10)?
Its concentration at 10 min is 14000 ng/mL.

And the concentration at 20 min ([5]; 20 minutes, read-out: Blood levels at minutes after administration: 20)?
Its concentration at 20 min is 12000 ng/mL.

What about the concentration at 0.5 h ([5]; 30 minutes, read-out: Blood levels at minutes after administration: 30) of the same molecule?
The concentration at 0.5 h was 8800 ng/mL.

What about the concentration at 40 min ([5]; 40 minutes, read-out: Blood levels at minutes after administration: 40) of the same molecule?
Its concentration at 40 min is 7500 ng/mL.

What about the concentration at 50 min ([5]; 50 minutes, read-out: Blood levels at minutes after administration: 50) of the same molecule?
The concentration at 50 min was 4700 ng/mL.

And the concentration at 1 h ([5]; 60 minutes, read-out: Blood levels at minutes after administration: 60)?
Its concentration at 1 h is 4400 ng/mL.

What about the concentration at 1.5 h ([5]; 90 minutes, read-out: Blood levels at minutes after administration: 90) of the same molecule?
Its concentration at 1.5 h is 1500 ng/mL.

What about the concentration at 2 h ([5]; 120 minutes, read-out: Blood levels at minutes after administration: 120) of the same molecule?
Its concentration at 2 h is 740 ng/mL.

What about the MIC (S. pyogenes (6 strains)) of the same molecule?
Its MIC is 0.013 µg/mL.

What about the “Geometric Mean of MIC (G+)-Ia” value [6] of the same molecule?
Its value is 1.6 µg/mL.

What about the MIC [6] of the same molecule?
The MIC was 1.1 µg/mL.

What about the MIC [7] of the same molecule?
The MIC was 0.25 µg/mL.

And the “Geometric Mean of MIC (G-)-Ib” value ([7]; Mueller-Hinton agar)?
Its value is 0.20 µg/mL.

And the “Geometric Mean of MIC (G-)-III” value [8]?
Its value is 4.0 µg/mL.

And the MIC [8]?
Its MIC is 3.2 µg/mL.

What about the MIC [9] of the same molecule?
Its MIC is 0.69 µg/mL.

What does the source list for `CO/N=C(\C(=O)NC1C(=O)N2C(C(=O)[O-])=C(C[N+](C)(C)CCO)CSC12)c1csc(N)n1` (centres unmarked) [Example 2, 7-[(Z)-2-(2-Aminothiazol-4-yl)-2-methoxyiminoacetamido]-3-[N,N-dimethyl-N-(2-hydroxyethyl)ammonium]methyl-3-cephem-4-carboxylate]?
MIC [1]: 4.7 µg/mL; MIC [4]: 0.038 µg/mL; MIC [6]: 1.6 µg/mL; MIC [7]: 0.18 µg/mL; MIC [8]: 3.5 µg/mL; MIC [9]: 0.6 µg/mL

For `C=CC[N+](C)(C)CC1=C(C(=O)[O-])N2C(=O)C(NC(=O)/C(=N\OC)c3csc(N)n3)C2SC1` (centres unmarked) [Example 3, 7-[(Z)-2-(2-Aminothiazol-4-yl)-2-methoxyiminoacetamido]-3-(N,N-dimethyl-N-allylammonium)methyl-3-cephem-4-carboxylate], which MIC [1] is on record?
Its MIC is 3.6 µg/mL.

And the MIC [4]?
Its MIC is 0.044 µg/mL.

What about the MIC [6] of the same molecule?
Its MIC is 1.4 µg/mL.

And the MIC [7]?
Its MIC is 0.22 µg/mL.

What about the MIC [8] of the same molecule?
Its MIC is 5.6 µg/mL.

And the MIC [9]?
The MIC was 0.69 µg/mL.

For `CO/N=C(\C(=O)NC1C(=O)N2C(C(=O)[O-])=C(C[N+](C)(C)Cc3cccnc3)CSC12)c1csc(N)n1` (centres unmarked) [Example 4, 7-[(Z)-2-(2-Aminothiazol-4-yl)-2-methoxyiminoacetamido]-3-[N,N-dimethyl-N-(3-pyridylmethyl)ammonium]methyl-3-cephem-4-carboxylate], which MIC [1] is on record?
Its MIC is 4.7 µg/mL.

And the MIC [4]?
Its MIC is 0.057 µg/mL.

What about the MIC [6] of the same molecule?
The MIC was 2.1 µg/mL.

And the MIC [7]?
The MIC was 0.22 µg/mL.

What about the MIC [8] of the same molecule?
Its MIC is 7.1 µg/mL.

What about the MIC [9] of the same molecule?
Its MIC is 0.69 µg/mL.

Which MIC [1] does the source give for `CCO/N=C(\C(=O)NC1C(=O)N2C(C(=O)[O-])=C(C[N+](C)(C)C)CSC12)c1csc(N)n1` (centres unmarked) [Example 8, 7-[(Z)-2-(2-Aminothiazol-4-yl)-2-ethoxyiminoacetamido]-3-(trimethylammonium)methyl-3-cephem-4-carboxylate] here?
Its MIC is 5.5 µg/mL.

And the MIC [4]?
The MIC was 0.087 µg/mL.

And the MIC [6]?
Its MIC is 2.1 µg/mL.

What about the MIC [7] of the same molecule?
The MIC was 0.5 µg/mL.

What about the MIC [8] of the same molecule?
The MIC was 7.9 µg/mL.

What about the MIC [9] of the same molecule?
The MIC was 1.4 µg/mL.
